Results from BindingDB's records for patent US20240294545 (Cspc Zhongqi Pharmaceutical Technology (Shijiazhuang), 2024).

What was measured:
[1] = target: Serine-protein kinase ATM (Homo sapiens, UniProt Q13315); experiment: Inhibitory Activities of Compounds on ATM
Method: To a 96-well plate, 98 μL of DMSO and 2 μL of the 10 mM stock solution were added and mixed evenly so that the concentration of the solution was 200 μM.

[2] = target: DNA-dependent protein kinase catalytic subunit (Homo sapiens, UniProt P78527); experiment: Inhibitory Activities of Compounds on DNA-PK Kinase: ADP-Glo Kinase Assay
Method: (1) Preparation of 1× kinase buffer40 mM Tris, pH 7.50.0055% Brij-3520 mM MgCl20.05 mM DTT(2) Preparation of test compound1) The compound was dissolved in DMSO to yield a stock solution. Before the assay, the stock solution of the compound was diluted with DMSO to yield a 100× solution at a concentration that is 100 times a target concentration for assay. […] The test plate was shaken for mixing evenly.3) Kinase reactionEach well of the test plate was covered and incubated at room temperature for 3 h.(4) Kinase detection1) The ADP-Glo reagent was equilibrated at room temperature.2) 5 μL of ADP-Glo reagent was added to each well of the test plate to terminate the reaction.3) The plate was centrifuged for a short time to mix evenly, shaken gently, and equilibrated for 120 min.4) 10 μL of kinase detection reagent was added to each well, with shaking for 1 min, after equilibrating for 30 min, […] detection was performed.(5) Reading of the reaction wells(6) Calculation of inhibitory rates by means of curve fitting to the read values.

[3] = target: Phosphatidylinositol 4,5-bisphosphate 3-kinase catalytic subunit alpha isoform (Homo sapiens, UniProt P42336); experiment: Inhibitory Activities of Compounds on PI3Kα, PI3Kβ, PI3Kγ, and PI3Kδ Kinase: ADP-Glo Kinase Assay
Method: (§1) (1) Preparation of 1× kinase buffer50 mM HEPES, pH 7.53 mM MgCl21 mM EGTA100 mM NaCl0.03% CHAPS2 mM DTT(2) Preparation of test compound1) Dissolution and dilution of compound:The compound was dissolved in DMSO to yield a stock solution. Before the assay, the stock solution of the compound was diluted with DMSO in a 384-well plate to yield a 100× solution at a concentration that is 100 times a target concentration for assay.50 μL of DMSO was added, respectively, into two blank wells in the same 384 well plate, corresponding to the total reaction control without compound and the blank control without enzyme.2) Preparation of test plate: 50 nL of the compound solution in each of the above wells was taken to a test plate.(3) Kinase reaction1) PI3Kα, PI3Kβ, PI3Kγ, and PI3Kδ kinases were dissolved, respectively, in 1× kinase buffer to yield a 2× enzyme solution at a concentration that is twice the final concentration. 2.5 µL of the 2× enzyme solution was taken to each well of the test plate. The blank control without enzyme was added with 2.5 μL of the 1× kinase buffer instead of the enzyme solution. The test plate was shaken for mixing evenly.2) PIP2 substrate and ATP were dissolved in the 1× kinase buffer to yield a 2× substrate solution that is twice the final concentration. 2.5 μL of the 2× substrate solution was taken to each well of the test plate. The test plate was shaken for mixing evenly.3) Kinase reactionEach well of the test plate was covered and incubated at room temperature for 1 h.(4) Kinase detection1) The ADP-Glo reagent was equilibrated at room temperature.2) 5 μL of ADP-Glo reagent was added to each well of the test plate to terminate the reaction.3) The plate was centrifuged for a short time to mix evenly, shaken gently, and equilibrated for 120 min.4) 10 μL of kinase detection reagent was added to each well, with shaking for 1 min, after equilibrating for 30 min, […] detection was performed.(5) Reading of the reaction wells(6) Calculation of inhibitory rates by means of curve fitting to the read values

[4] = target: Phosphatidylinositol 4,5-bisphosphate 3-kinase catalytic subunit beta isoform (Homo sapiens, UniProt P42338); experiment: as above
Phosphatidylinositol 4,5-bisphosphate 3-kinase catalytic subunit beta isoform, sequence (P42338 whole entry, canonical isoform): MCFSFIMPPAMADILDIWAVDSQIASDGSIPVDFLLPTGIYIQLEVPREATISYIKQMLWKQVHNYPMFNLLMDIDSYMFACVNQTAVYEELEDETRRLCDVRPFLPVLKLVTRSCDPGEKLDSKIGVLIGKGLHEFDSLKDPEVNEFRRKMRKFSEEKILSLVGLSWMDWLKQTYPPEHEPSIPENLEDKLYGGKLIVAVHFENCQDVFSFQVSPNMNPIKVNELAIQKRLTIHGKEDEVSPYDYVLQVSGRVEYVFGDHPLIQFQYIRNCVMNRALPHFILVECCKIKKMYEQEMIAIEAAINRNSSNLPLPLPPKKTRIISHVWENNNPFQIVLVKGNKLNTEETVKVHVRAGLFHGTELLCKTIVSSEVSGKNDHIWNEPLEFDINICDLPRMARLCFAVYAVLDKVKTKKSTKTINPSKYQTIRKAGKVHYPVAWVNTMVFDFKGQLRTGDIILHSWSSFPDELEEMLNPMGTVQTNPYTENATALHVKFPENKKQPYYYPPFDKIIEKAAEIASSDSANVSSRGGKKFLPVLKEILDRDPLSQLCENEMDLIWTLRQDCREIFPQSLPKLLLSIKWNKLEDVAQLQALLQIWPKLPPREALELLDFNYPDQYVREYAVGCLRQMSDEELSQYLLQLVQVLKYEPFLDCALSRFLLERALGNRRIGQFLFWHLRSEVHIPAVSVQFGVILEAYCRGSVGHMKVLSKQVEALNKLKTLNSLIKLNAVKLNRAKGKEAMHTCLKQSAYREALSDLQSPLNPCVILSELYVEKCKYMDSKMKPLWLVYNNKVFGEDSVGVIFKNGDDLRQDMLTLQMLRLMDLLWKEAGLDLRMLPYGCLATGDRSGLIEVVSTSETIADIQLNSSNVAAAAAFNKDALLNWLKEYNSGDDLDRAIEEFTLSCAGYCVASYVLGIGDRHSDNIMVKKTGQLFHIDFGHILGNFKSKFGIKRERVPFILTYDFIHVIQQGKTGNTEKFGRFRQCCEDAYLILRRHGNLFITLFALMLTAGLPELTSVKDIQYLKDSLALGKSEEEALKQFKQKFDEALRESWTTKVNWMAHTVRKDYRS
Method: as §1

[5] = target: Phosphatidylinositol 4,5-bisphosphate 3-kinase catalytic subunit gamma isoform (Homo sapiens, UniProt P48736); experiment: as above
Method: as §1

[6] = target: T1, Phosphatidylinositol 4,5-bisphosphate 3-kinase catalytic subunit delta isoform (Homo sapiens, UniProt O00329); experiment: as above
T1 sequence (O00329 whole entry): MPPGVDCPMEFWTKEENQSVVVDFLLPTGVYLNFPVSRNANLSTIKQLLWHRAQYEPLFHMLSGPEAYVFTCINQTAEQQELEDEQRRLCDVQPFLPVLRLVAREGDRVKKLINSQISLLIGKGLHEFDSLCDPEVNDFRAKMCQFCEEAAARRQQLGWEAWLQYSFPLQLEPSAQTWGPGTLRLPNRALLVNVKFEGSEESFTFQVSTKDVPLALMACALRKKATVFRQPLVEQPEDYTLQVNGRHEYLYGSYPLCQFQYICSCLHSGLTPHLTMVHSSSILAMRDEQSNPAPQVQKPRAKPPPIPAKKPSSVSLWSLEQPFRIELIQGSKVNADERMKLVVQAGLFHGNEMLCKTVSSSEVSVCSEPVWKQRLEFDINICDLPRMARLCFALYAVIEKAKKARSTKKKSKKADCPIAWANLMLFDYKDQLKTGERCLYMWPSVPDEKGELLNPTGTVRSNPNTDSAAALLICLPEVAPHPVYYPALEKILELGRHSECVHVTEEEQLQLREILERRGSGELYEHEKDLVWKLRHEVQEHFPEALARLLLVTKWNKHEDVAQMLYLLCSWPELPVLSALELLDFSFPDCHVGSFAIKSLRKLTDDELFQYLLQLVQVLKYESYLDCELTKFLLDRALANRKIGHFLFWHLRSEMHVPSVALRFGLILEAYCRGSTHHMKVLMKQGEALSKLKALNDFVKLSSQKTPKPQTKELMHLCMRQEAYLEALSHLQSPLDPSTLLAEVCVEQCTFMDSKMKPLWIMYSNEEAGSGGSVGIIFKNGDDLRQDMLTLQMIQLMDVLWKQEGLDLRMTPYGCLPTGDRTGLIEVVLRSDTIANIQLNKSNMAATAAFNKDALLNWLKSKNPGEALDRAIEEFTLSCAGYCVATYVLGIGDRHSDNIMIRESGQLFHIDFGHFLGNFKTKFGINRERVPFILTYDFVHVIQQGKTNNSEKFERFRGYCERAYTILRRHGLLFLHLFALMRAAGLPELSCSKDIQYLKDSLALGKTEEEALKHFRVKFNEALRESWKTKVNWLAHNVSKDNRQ
Method: as §1

[7] = target: Serine/threonine-protein kinase ATR (Homo sapiens, UniProt Q13535); experiment: Inhibitory Activity of Compounds on ATR
Method: (1) Preparation of 1 kinase buffer and reaction termination solution1) 1 kinase buffer50 mM HEPES, pH 7.50.0015% Brij-[…] MnCl22) Reaction termination solution100 mM HEPES, pH 7.50.015% Brij-350.2% Coating Reagent #350 mM EDTA(2) Preparation of test compound1) The compound was dissolved in DMSO to yield a stock solution. Before the assay, to a 96-well plate, 30 uL of a 10 mM stock solution was taken and added with 60 uL of DMSO. […] 10 µL of the 2 substrate solution was taken to each well of the test plate.3) Kinase reaction:After incubation at 28 C. for a certain time, 30 uL of the reaction termination solution was added to terminate the enzymatic reaction.(5) Reading of the reaction wells(6) Calculation of inhibitory rates by means of curve fitting to the read values.% inhibitory rate=(max+-sample value)/(max+-min)*100; wherein max represents the value of the total reaction well with DMSO but no compound; min represents the value of the blank control well without enzyme and compound.

Serine-protein kinase ATM, sequence (Q13315 whole entry): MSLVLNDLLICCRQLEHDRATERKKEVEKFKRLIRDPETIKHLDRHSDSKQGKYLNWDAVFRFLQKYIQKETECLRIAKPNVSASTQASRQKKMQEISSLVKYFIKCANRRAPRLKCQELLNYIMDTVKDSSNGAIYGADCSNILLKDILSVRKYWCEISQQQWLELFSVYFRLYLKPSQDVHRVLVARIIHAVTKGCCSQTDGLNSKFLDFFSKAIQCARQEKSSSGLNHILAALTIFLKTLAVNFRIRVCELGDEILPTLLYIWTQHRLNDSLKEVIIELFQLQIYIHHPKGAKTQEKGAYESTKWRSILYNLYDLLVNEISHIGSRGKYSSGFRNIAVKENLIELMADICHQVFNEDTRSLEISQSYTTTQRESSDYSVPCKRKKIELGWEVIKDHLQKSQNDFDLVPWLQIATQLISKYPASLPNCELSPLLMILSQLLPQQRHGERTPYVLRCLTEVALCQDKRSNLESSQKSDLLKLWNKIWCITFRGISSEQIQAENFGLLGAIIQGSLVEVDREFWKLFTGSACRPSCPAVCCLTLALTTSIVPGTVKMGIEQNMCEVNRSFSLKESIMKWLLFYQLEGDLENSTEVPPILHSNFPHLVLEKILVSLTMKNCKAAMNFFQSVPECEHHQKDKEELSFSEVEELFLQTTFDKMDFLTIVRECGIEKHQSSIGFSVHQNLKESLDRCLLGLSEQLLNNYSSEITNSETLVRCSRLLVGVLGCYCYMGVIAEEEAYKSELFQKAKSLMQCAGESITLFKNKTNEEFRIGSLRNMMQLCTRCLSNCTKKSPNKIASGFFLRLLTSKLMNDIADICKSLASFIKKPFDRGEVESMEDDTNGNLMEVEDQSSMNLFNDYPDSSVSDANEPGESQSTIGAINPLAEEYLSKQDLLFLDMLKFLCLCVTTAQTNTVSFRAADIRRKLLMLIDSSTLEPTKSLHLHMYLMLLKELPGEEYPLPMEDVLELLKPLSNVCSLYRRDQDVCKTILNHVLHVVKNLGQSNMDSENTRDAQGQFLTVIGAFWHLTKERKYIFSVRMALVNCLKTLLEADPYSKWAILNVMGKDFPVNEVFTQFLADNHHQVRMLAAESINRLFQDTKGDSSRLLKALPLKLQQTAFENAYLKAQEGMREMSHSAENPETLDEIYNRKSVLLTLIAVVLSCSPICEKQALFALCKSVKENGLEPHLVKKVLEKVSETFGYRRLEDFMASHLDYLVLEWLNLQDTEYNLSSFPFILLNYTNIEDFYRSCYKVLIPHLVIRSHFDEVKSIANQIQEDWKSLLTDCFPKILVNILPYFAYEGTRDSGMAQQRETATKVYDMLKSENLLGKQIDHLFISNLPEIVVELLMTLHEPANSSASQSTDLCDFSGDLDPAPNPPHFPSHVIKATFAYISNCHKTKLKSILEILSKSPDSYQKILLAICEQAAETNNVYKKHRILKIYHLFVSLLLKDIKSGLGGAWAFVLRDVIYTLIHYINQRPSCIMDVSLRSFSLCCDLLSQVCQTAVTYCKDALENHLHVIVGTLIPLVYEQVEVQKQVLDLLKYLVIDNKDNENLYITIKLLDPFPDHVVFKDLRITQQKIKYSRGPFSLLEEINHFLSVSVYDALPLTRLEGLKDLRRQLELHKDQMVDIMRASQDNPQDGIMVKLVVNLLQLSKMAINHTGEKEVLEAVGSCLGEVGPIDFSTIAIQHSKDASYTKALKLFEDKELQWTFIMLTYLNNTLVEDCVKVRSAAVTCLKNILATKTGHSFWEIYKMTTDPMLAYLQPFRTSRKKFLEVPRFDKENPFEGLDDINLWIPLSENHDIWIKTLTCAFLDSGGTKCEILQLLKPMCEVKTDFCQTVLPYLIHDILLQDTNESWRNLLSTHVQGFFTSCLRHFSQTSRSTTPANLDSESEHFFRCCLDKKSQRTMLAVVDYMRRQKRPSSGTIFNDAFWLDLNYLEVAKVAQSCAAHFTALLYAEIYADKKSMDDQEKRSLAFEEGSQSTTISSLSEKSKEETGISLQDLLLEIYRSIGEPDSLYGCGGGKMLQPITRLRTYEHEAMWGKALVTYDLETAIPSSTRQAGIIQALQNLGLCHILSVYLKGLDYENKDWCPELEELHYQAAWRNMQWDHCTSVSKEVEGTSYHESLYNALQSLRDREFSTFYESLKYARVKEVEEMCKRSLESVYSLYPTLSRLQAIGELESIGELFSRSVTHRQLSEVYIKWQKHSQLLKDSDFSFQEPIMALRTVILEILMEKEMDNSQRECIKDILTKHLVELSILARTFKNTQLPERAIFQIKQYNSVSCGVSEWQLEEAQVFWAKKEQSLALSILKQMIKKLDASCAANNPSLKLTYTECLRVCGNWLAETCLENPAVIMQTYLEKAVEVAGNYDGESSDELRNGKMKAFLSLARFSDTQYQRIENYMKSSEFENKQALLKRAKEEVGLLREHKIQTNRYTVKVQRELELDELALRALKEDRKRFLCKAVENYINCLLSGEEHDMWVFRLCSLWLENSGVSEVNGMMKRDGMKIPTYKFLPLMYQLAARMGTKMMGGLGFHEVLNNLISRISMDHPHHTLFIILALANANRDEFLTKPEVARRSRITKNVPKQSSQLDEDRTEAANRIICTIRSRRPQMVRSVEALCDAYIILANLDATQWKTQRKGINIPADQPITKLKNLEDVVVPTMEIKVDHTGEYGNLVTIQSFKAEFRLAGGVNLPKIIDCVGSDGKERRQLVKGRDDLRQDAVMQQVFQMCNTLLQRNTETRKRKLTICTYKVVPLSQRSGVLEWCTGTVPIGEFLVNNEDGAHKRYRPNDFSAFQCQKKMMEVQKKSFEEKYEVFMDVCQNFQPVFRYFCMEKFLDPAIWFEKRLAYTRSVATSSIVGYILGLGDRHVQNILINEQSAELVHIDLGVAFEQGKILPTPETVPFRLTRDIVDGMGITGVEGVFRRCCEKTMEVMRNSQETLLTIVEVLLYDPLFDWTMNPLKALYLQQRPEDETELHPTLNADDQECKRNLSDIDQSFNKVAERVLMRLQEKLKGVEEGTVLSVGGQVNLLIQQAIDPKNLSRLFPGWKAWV

Row | Structure (SMILES) | IC50 [1] | further results
1 | COc1cc2ncc3c4c2c(oc2ccccc2n4c(=O)n3C)c1-c1cnn(C)c1 [US20240294545, Compound A-33] | 0.08 nM | 
2 | Cn1c(=O)n2c3c4c(c(-c5ccc(OCCCN6CCC(C#N)CC6)nc5)c(F)cc4ncc31)OCC21CCC1 [US20240294545, Compound A-166] | 0.21 nM | 
3 | Cn1c(=O)n2c3c4c(c(-c5ccc(OCCCN6CCCCC6)nc5)c(F)cc4ncc31)OC1CCCCC12 (stereo not given) [US20240294545, Compound A-21] | 0.45 nM | IC50 [2]: 2230 nM; IC50 [3]: > 10000 nM; IC50 [4]: > 10000 nM; IC50 [5]: > 10000 nM; IC50 [6]: > 10000 nM; IC50 [7]: > 10000 nM
4 | Cn1c(=O)n2c3c4c(c(-c5ccc(OCCCN6CCC(F)CC6)nc5)c(F)cc4ncc31)OCC21CCC1 [US20240294545, Compound A-165] | 0.37 nM | 

Continued, in another order:

Row | IC50 [1] | Structure (SMILES) | further results
5 | 0.33 nM | Cn1c(=O)n2c3c4c(c(-c5ccc(OCCCN6CCC7(CC6)COC7)nc5)c(F)cc4ncc31)OCC21CCC1 [US20240294545, Compound A-167] | 
6 | 0.78 nM | Cn1c(=O)n2c3c4c(c(-c5ccc(OCCCN6CCCCC6)nc5)c(F)cc4ncc31)OCC21CCOCC1 [US20240294545, Compound A-204] | 
7 | 0.45 nM | CC[C@@H]1CNc2c(-c3ccc(OCCCN4CCCCC4)nc3)c(F)cc3ncc4c(c23)n1c(=O)n4C [US20240294545, Compound A-194] | 
8 | 0.61 nM | CC[C@@H]1CNc2c(-c3ccc(OCCCN4CCCCC4)nc3)ccc3ncc4c(c23)n1c(=O)n4C [US20240294545, Compound A-201] | 
9 | 0.7 nM | Cn1c(=O)n2c3c4c(c(-c5ccc(OCCCN6CC7CC7C6)nc5)c(F)cc4ncc31)OCC21CCC1 (stereo not given) [US20240294545, Compound A-170] | 
